Results: ChEMBL document CHEMBL1141796, “Hirsutide, a cyclic tetrapeptide from a spider-derived entomopathogenic fungus, Hirsutella sp” (J Nat Prod, 2005)
Calls of active or inactive are those of the source.

How the values were obtained:
[1] = test system: Candida albicans; test: Antifungal activity against Candida albicans by agar diffusion assay; type: functional, organism-based
[2] = test system: Amorphotheca resinae; test: Antifungal activity against Cladosporium resinae by agar diffusion assay; type: functional, organism-based
[3] = test system: Bacillus subtilis; test: Antibacterial activity against Bacillus subtilis by agar diffusion assay; type: functional, organism-based
[4] = test system: Escherichia coli; test: Antibacterial activity against Escherichia coli by agar diffusion assay; type: functional, organism-based
[5] = test system: P388; test: Cytotoxicity against mouse P388 cells; type: functional, cell-based
[6] = test system: Trichophyton mentagrophytes; test: Antifungal activity against Trichophyton mentagrophytes by agar diffusion assay; type: functional, organism-based

CC(=O)O[C@@H]1/C=C/[C@@](C)(O)C(=O)[C@@H](C)C/C=C/[C@H]2[C@@H]3O[C@]3(C)[C@@H](C)[C@H]3[C@H](Cc4ccccc4)NC(=O)[C@@]312 [CYTOCHALASIN Q]
inactive: Activity [1] | Activity [2] | Activity [3] | Activity [4] | Activity [6]
2400 nM: IC50 [5]
